In patent US7135466B2 (Kirin Beer Kabushiki Kaisha, priority 1999, dated 2006):
Like-named read-outs stand apart in the source and are kept apart here.

Tests used:
PDGF-Ra = target: T1, PDGF-Ra (Homo sapiens, UniProt P16234); assay: Inhibitory activity against PDGF-Ra phosphorylation by PDGF-AA stimulation using G292; type: cell-based; conditions: for IC50: > means inhibition at indicated concentration not more than 50%, < and << not less than 50%, read-out: PDGF (E) IC50; for inhibition at 0.1 µM: G292, at 100 nM, read-out: PDGF (E) inhibition (%) at 100 nM
T1 construct: host or cells: G-292 human osteosarcoma cells
T1 sequence (P16234 24-1089): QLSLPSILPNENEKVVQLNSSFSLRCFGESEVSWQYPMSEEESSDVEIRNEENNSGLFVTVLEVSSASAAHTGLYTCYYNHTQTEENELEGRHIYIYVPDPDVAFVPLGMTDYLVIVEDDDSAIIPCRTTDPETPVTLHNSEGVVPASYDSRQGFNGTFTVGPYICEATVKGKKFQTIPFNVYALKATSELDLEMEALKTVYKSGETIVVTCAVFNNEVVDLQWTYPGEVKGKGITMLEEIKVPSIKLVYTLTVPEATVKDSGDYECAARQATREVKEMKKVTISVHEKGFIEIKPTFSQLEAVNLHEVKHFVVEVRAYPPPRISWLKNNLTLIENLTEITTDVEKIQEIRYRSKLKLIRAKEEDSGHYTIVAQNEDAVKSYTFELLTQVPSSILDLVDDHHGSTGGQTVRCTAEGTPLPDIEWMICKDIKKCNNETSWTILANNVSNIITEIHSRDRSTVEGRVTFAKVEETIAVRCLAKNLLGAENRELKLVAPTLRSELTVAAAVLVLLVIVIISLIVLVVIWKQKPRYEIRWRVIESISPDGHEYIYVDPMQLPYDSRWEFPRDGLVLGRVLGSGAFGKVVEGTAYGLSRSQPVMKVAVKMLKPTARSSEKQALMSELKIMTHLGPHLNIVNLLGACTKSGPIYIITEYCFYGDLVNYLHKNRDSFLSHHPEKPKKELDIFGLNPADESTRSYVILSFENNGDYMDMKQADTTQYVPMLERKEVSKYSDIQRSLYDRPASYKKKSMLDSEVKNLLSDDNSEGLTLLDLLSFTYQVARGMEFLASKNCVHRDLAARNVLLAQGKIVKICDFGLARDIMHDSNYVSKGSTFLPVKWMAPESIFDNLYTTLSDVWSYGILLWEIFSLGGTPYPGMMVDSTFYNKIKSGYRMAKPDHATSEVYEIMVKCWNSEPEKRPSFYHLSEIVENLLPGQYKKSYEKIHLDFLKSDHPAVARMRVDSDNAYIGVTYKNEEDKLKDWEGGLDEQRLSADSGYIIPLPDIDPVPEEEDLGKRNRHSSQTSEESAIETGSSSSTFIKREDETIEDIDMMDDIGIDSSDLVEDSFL
Outline: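 Phospho-PDGF-Ra ELISA: capture with PY-20 antiphosphotyrosine, detection with anti-PDGF-Ra and peroxidase secondary, read at 450 nm. Lysates came from G-292 osteosarcoma cells starved in 0.1% FBS, compound-treated 1 hr at 37° C, and stimulated with 50 ng/ml PDGF-AA for 5 min.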

c-kit = target: T2, c-kit (Homo sapiens, UniProt P10721); assay: Inhibitory activity against c-kit autophosphorylation (MO7e cells, h-SCF); type: cell-based; conditions: for IC50: MO7e cells, read-out: c-kit IC50; for inhibition at 1 µM: Mo7e, at 1000 nM
T2 construct: MO7e (human megakaryocytic leukemia cell line) which had been arrested for 20 hr; endogenous in cells; host or cells: MO7e human megakaryocytic leukemia cell line
T2 sequence (P10721 26-976): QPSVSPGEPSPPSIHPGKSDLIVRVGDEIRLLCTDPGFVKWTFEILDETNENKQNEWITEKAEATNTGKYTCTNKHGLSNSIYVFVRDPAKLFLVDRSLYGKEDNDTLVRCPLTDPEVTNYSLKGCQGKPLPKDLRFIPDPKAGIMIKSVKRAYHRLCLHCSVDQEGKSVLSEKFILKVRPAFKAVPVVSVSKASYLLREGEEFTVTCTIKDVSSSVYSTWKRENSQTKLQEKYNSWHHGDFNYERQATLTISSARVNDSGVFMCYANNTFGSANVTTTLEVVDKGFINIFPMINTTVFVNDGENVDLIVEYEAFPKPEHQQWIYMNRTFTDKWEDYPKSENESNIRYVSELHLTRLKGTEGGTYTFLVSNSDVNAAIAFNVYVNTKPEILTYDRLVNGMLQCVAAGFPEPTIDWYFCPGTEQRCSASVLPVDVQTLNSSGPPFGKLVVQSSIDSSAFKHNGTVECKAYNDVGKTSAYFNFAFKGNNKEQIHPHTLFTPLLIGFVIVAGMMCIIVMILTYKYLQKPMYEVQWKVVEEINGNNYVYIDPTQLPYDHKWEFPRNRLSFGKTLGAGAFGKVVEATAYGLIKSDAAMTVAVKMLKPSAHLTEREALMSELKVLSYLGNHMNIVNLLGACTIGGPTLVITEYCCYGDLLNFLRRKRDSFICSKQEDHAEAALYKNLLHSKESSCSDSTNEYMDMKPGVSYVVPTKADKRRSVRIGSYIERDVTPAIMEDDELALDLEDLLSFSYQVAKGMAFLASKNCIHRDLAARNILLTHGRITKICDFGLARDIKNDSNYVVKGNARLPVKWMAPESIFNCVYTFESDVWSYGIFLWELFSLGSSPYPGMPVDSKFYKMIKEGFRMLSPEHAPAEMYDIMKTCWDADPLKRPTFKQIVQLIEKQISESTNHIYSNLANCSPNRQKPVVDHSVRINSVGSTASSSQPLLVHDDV
Outline: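 In this cellular autophosphorylation assay, compound-treated MO7e cells (1 hr) were challenged with human stem cell factor at 50 ng/ml for 5 min; detection relied on PY-20 capture and anti-c-kit/HRP immunodetection at 450 nm.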

[1] = figure within parentheses in >100( )
[2] = figure within parentheses in −( ) or >1000( )

Row | IC50 (PDGF-Ra) | IC50 (c-kit; 50 ng/ml h-SCF) | IC50 (PDGF-Ra; Pharmacological Test Example 1) | IC50 (c-kit; h-SCF 50 ng/ml) | Structure (SMILES) | other results
1 | 0.019 µM | – | – | – | CCOCCC(=O)NC(=S)Nc1ccc(Oc2ccnc3cc(OC)c(OC)cc23)cc1 [Example 1065, N-{4-[(6,7-Dimethoxy-4-quinolyl)oxy]phenyl}-N′-(3-ethoxypropanoyl)thiourea] | IC50 (c-kit; h-SCF stimulation): 0.566 µM
2 | 0.076 µM | 0.182 µM | – | – | COc1cc2nccc(Oc3cc(C)c(NC(=O)OCc4ccccn4)cc3C)c2cc1OC [Example 430, 2-Pyridylmethyl N-{4-[(6,7-dimethoxy-4-quinolyl)oxy]-2,5-dimethylphenyl}carbamate] | –
3 | – | – | 0.012 µM | 0.05 µM | COc1cccc(OCCCOC(=O)Nc2ccc(Oc3ncnc4cc(OC)c(OC)cc34)cc2)c1 [Example 164, 3-(3-Methoxyphenoxy)propyl N-{4-[(6,7-dimethoxy-4-quinazolinyl)oxy]phenyl}carbamate] | –
4 | 0.019 µM | 0.423 µM | – | – | COc1cc(Oc2ccnc3cc(OC)c(OC)cc23)ccc1NC(=O)NN1CCCCC1 [Example 598, N-{4-[(6,7-Dimethoxy-4-quinolyl)oxy]-2-methoxyphenyl}-N′-(1-piperidinyl)urea] | –
5 | – | – | 0.026 µM | 0.301 µM | COc1cc2nccc(Oc3ccc(NC(=O)OC(C)c4ccc(C)cc4)cc3)c2cc1OC (centres unmarked) [Example 132, 1-(4-Methylphenyl)ethyl N-{4-[(6,7-dimethoxy-4-quinolyl)oxy]phenyl}carbamate] | –
6 | 0.012 µM | 0.168 µM | – | – | COc1cc2ncnc(Oc3ccc(NC(=O)NC4CCN(Cc5ccccc5C)C4)cc3)c2cc1OC (centres unmarked) [Example 569, N-{4-[(6,7-Dimethoxy-4-quinazolinyl)oxy]phenyl}-N′-[1-(2-methylbenzyl)tetrahydro-1H-3-pyrrolyl]urea] | –
7 | – | – | 0.025 µM | 0.956 µM | CCCC(CC)OC(=O)Nc1ccc(Oc2ncnc3cc(OC)c(OC)cc23)cc1Cl (centres unmarked) [Example 338, 1-Ethylbutyl N-{2-chloro-4-[(6,7-dimethoxy-4-quinazolinyl)oxy]phenyl}carbamate] | –
8 | 0.008 µM | – | – | – | COc1cc2nccc(Oc3ccc(NC(=S)NC(=O)C4CC4)cc3Cl)c2cc1OC [Example 1058, N-{3-Chloro-4-[(6,7-dimethoxy-4-quinolyl)oxy]phenyl}-N′-cyclopropylcarbonylthiourea] | inhibition at 1 µM (c-kit; figure in parentheses in −( )): 21%
9 | 0.014 µM | 0.084 µM | – | – | COc1cc2ncnc(Oc3ccc(NC(=O)NC4CCN(Cc5ccccc5Cl)C4)cc3)c2cc1OC (centres unmarked) [Example 580, N-[1-(2-Chlorobenzyl)tetrahydro-1H-3-pyrrolyl]-N′-{4-[(6,7-dimethoxy-4-quinazolinyl)oxy]phenyl}urea] | –
10 | < 0.01 µM | 0.459 µM | – | – | COc1cc2nccc(Oc3ccc(NC(=S)NC(=O)Cc4cccs4)cc3Cl)c2cc1OC [Example 701, N-{3-Chloro-4-[(6,7-dimethoxy-4-quinolyl)oxy]phenyl}-N′-[2-(2-thienyl)acetyl]thiourea] | –
11 | 0.053 µM | – | – | – | COc1cc2nccc(Oc3ccc(NC(=S)NC(=O)c4ccc(CCl)cc4)c(F)c3)c2cc1OC [Example 996, N-[4-(Chloromethyl)benzoyl]-N′-{4-[(6,7-dimethoxy-4-quinolyl)oxy]-2-fluorophenyl}thiourea] | inhibition at 1 µM (c-kit; figure in parentheses in −( )): 27%
12 | > 0.1 µM | – | – | – | COc1cc2ncnc(Oc3ccc(NC(=S)NCCN(C)C)cc3)c2cc1OC [Example 529, N-{4-[(6,7-Dimethoxy-4-quinazolinyl)oxy]phenyl}-N′-(2-dimethylaminoethyl) thiourea] | inhibition at 0.1 µM (PDGF-Ra; [1]): 38%; inhibition at 1 µM (c-kit; [2]): 8%
13 | 0.011 µM | 0.056 µM | – | – | COc1cc(Oc2ncnc3cc(OC)c(OC)cc23)ccc1NC(=O)OCCc1ccccn1 [Example 501, 2-(2-Pyridyl)ethyl N-{4-[(6,7-dimethoxy-4-quinazolinyl)oxy]-2-methoxyphenyl}carbamate] | –
14 | – | – | 0.013 µM | 0.842 µM | COc1cc2ncnc(Oc3ccc(NC(=O)OCCc4cccc(C(F)(F)F)c4)c(Cl)c3)c2cc1OC [Example 86] | –
15 | – | – | 0.021 µM | 0.151 µM | COc1cc2nccc(Oc3cc(C)c(NC(=O)OCCCc4ccccc4)cc3C)c2cc1OC [Example 377, 3-Phenylpropyl N-{4-[(6,7-dimethoxy-4-quinolyl)oxy]-2,5-dimethylphenyl}carbamate] | –
16 | > 0.1 µM | 0.414 µM | – | – | CCCC(CCN1CCOCC1)OC(=O)Nc1cc(C)c(Oc2ccnc3cc(OC)c(OC)cc23)cc1C (centres unmarked) [Example 438, 1-(2-Morpholinoethyl)butyl N-{4-[(6,7-dimethoxy-4-quinolyl)oxy]-2,5-dimethylphenyl}carbamate] | inhibition at 0.1 µM (PDGF-Ra; [1]): 41%
17 | – | – | 0.042 µM | – | COc1cc2nccc(Oc3cc(C)c(NC(=O)OC(C)c4ccccc4F)cc3C)c2cc1OC (centres unmarked) [Example 124, 1-(2-Fluorophenyl)ethyl N-{4-[(6,7-dimethoxy-4-quinolyl)oxy]-2,5-dimethylphenyl}carbamate] | inhibition at 1 µM (c-kit; figure in parentheses in −( )): 39%
18 | 0.064 µM | 0.262 µM | – | – | COc1cc2nccc(Oc3ccc(NC(=O)NC4CCN(Cc5ccccc5C)C4)c(C)c3C)c2cc1OC (centres unmarked) [Example 572, N-{4-[(6,7-Dimethoxy-4-quinolyl)oxy]-2,3-dimethylphenyl}-N′-[1-(2-methylbenzyl)tetrahydro-1H-3-pyrrolyl]urea] | –
19 | – | – | < 0.01 µM | 0.163 µM | COc1cc2ncnc(Oc3ccc(NC(=O)OCCc4cccc(C(F)(F)F)c4)cc3)c2cc1OC [Example 85, 3-(Trifluoromethyl)phenethyl N-{4-[(6,7-dimethoxy-4-quinazolinyl)oxy]phenyl}carbamate] | –
20 | – | – | 0.018 µM | 0.049 µM | COc1cc2nccc(Oc3cc(C)c(NC(=O)OCCCOc4ccccc4F)cc3C)c2cc1OC [Example 144, 3-(2-Fluorophenoxy)propyl N-{4-[(6,7-dimethoxy-4-quinolyl)oxy]-2,5-dimethylphenyl}carbamate] | –
21 | > 0.1 µM | – | – | – | CCCCN(CCCC)CCCNC(=S)Nc1ccc(Oc2ccnc3cc(OC)c(OC)cc23)c(C)c1C [Example 547, N-{4-[(6,7-Dimethoxy-4-quinolyl)oxy]-2,3-dimethylphenyl}-N′-(3-dibutylaminopropyl)thiourea] | inhibition at 0.1 µM (PDGF-Ra; [1]): 33%; inhibition at 1 µM (c-kit; [2]): 41%
22 | 0.01 µM | 0.134 µM | – | – | CCN(CCNC(=O)Nc1ccc(Oc2ccnc3cc(OC)c(OC)cc23)cc1[N+](=O)[O-])c1cccc(C)c1 [Example 666, N-{4-[(6,7-Dimethoxy-4-quinolyl)oxy]-2-nitrophenyl}-N′-[2-(ethyl-3-methylanilino)ethyl]urea] | –
23 | > 0.1 µM | – | – | – | COc1cc2nccc(Oc3cc(C)c(NC(=S)NCCCN4CCN(C)CC4)cc3C)c2cc1OC [Example 556, N-{4-[(6,7-Dimethoxy-4-quinolyl)oxy]-2,5-dimethylphenyl}-N′-[3-(4-methylpiperazinyl)propyl]thiourea] | inhibition at 0.1 µM (PDGF-Ra; [1]): 13%; inhibition at 1 µM (c-kit; [2]): 28%
24 | < 0.01 µM | – | – | – | COc1cc2ncnc(Oc3ccc(NC(=S)NC(=O)c4cc(C)oc4C)cc3)c2cc1OC [Example 718, N-{4-[(6,7-Dimethoxy-4-quinazolinyl)oxy]phenyl}-N′-[(2,5-dimethyl-3-furyl)carbonyl]thiourea] | inhibition at 1 µM (c-kit; [2]): 19%
25 | – | – | 0.017 µM | 0.601 µM | COc1cc2nccc(Oc3ccc(NC(=O)OC(C)c4cc(F)c(F)cc4F)c(C)c3C)c2cc1OC (centres unmarked) [Example 93, 1-(2,4,5-Trifluorophenyl)ethyl N-{4-[(6,7-dimethoxy-4-quinolyl)oxy]-2,3-dimethylphenyl}carbamate] | –
26 | 0.033 µM | 0.106 µM | – | – | COc1cc2ncnc(Oc3ccc(NC(=O)NC4CCN(Cc5ccccc5)CC4)cc3)c2cc1OC [Example 636, N-(1-Benzyl-4-piperidyl)-N′-{4-[(6,7-dimethoxy-4-quinazolinyl)oxy]phenyl}urea] | –
27 | – | – | < 0.01 µM | 0.056 µM | COc1cc2nccc(Oc3cc(C)c(NC(=O)OCCCSc4ccc(C)cc4)cc3C)c2cc1OC [Example 39, 3-[(4-Methylphenyl)sulfanyl)propyl N-{4-[(6,7-dimethoxy-4-quinolyl)oxy]-2,5-dimethylphenyl}-carbamate] | –
28 | > 0.1 µM | – | – | – | COc1cc2nccc(Oc3cc(C)c(NCCCOc4ccccc4)cc3C)c2cc1OC [Example 886, N-{4-[(6,7-Dimethoxy-4-quinolyl)oxy]-2 5-dimethylphenyl}-N-(3-phenoxypropyl)amine] | inhibition at 0.1 µM (PDGF-Ra; figure in parentheses in >100( )): 47%; inhibition at 1 µM (c-kit; figure in parentheses in −( )): 27%
29 | 0.012 µM | – | – | – | COc1cc2nccc(Oc3ccc(NC(=S)NC(=O)C4(C)CC4(Cl)Cl)cc3)c2cc1OC (centres unmarked) [Example 749, N-[(2,2-Dichloro-1-methylcyclopropyl)carbonyl]-N′-{4-[(6,7-dimethoxy-4-quinolyl)oxy]phenyl}thiourea] | inhibition at 1 µM (c-kit; [2]): 41%
30 | > 0.1 µM | – | – | – | COc1cc2ncnc(Oc3ccc(NC(=O)N4CCN(Cc5ccccc5)CC4)cc3)c2cc1OC [Example 690, N1-{4-[(6,7-Dimethoxy-4-quinazolinyl)oxy]phenyl}-4-benzyl-1-piperazinecarboxamide] | inhibition at 0.1 µM (PDGF-Ra; [1]): 10%; inhibition at 1 µM (c-kit; [2]): 11%

Row | Structure (SMILES) | IC50 (PDGF-Ra) | IC50 (c-kit; 50 ng/ml h-SCF) | IC50 (PDGF-Ra; Pharmacological Test Example 1) | IC50 (c-kit; h-SCF 50 ng/ml) | other results
31 | COc1cc2nccc(Oc3ccc(NC(=O)Oc4ccc(-c5ccccc5)cc4)c(C)c3C)c2cc1OC [Example 296, 4-Phenylphenyl N-{4-[(6,7-dimethoxy-4-quinolyl)oxy]-2,3-dimethylphenyl}carbamate] | – | – | 0.061 µM | 0.109 µM | –
